This assay concerns 361931-004-R-J1-PDC multicell spheroid viability. The experiment in a line: Anticancer human tumor 361931-004-R-J1-PDC patient-derived colon adenocarcinoma cell line growth inhibition [PI3K]. Particulars: for viability, T/C: stronger effect = lower value. An outline of the steps: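 We assembled tumor spheroids that included a stromal compartment of HUVEC and MSCs, then exposed them to targeted agents alone and together with PI3K pathway inhibitors. Concentration series descended by half-log from clinically achievable Cmax levels. Viability served as the endpoint.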

SMILES strings stand for the structures.
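Further: spheroids exposed to agents for seven days before readout.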

`CCN1CCN(Cc2ccc(Nc3ncc(F)c(-c4cc(F)c5nc(C)n(C(C)C)c5c4)n3)nc2)CC1` + CC(Nc1ncnc2nc[nH]c12)c1cc2cccc(Cl)c2c(=O)n1-c1ccccc1: the IC50 is, setting by setting: (curve of first compound, second compound 0.0316 µM) > 1000 nM; (curve of first compound, second compound 0.1 µM) > 1000 nM; (curve of first compound, second compound 0.316 µM) > 1000 nM; (curve of first compound, second compound 1 µM) > 1000 nM; (curve of first compound, second compound 3.16 µM) > 1000 nM; (curve of first compound, second compound 10 µM) > 1000 nM. Besides, the viability, T/C is 106% (second compound 0.0316 µM, first compound 0.00316 µM); 103% (second compound 0.0316 µM, first compound 0.01 µM); 103% (second compound 0.0316 µM, first compound 0.0316 µM); 98.8% (second compound 0.0316 µM, first compound 0.1 µM); 109% (second compound 0.0316 µM, first compound 0.316 µM); 105% (second compound 0.0316 µM, first compound 1 µM). For the same compound, the viability, T/C is, setting by setting: (second compound 0.1 µM, first compound 0.00316 µM) 105%; (second compound 0.1 µM, first compound 0.01 µM) 105%; (second compound 0.1 µM, first compound 0.0316 µM) 103%; (second compound 0.1 µM, first compound 0.1 µM) 97.6%; (second compound 0.1 µM, first compound 0.316 µM) 109%; (second compound 0.1 µM, first compound 1 µM) 100%. Also, the viability, T/C is, setting by setting: (second compound 0.316 µM, first compound 0.00316 µM) 101%; (second compound 0.316 µM, first compound 0.01 µM) 112%; (second compound 0.316 µM, first compound 0.0316 µM) 102%; (second compound 0.316 µM, first compound 0.1 µM) 110%; (second compound 0.316 µM, first compound 0.316 µM) 106%; (second compound 0.316 µM, first compound 1 µM) 91.9%. The viability, T/C was 105% (second compound 1 µM, first compound 0.00316 µM); 101% (second compound 1 µM, first compound 0.01 µM); 102% (second compound 1 µM, first compound 0.0316 µM); 104% (second compound 1 µM, first compound 0.1 µM); 108% (second compound 1 µM, first compound 0.316 µM); 93% (second compound 1 µM, first compound 1 µM). Also, the viability, T/C by setting is: (second compound 3.16 µM, first compound 0.00316 µM) 109%; (second compound 3.16 µM, first compound 0.01 µM) 107%; (second compound 3.16 µM, first compound 0.0316 µM) 101%; (second compound 3.16 µM, first compound 0.1 µM) 104%; (second compound 3.16 µM, first compound 0.316 µM) 100%; (second compound 3.16 µM, first compound 1 µM) 81.8%. The viability, T/C reads like this: (second compound 10 µM, first compound 0.00316 µM) 105%; (second compound 10 µM, first compound 0.01 µM) 102%; (second compound 10 µM, first compound 0.0316 µM) 106%; (second compound 10 µM, first compound 0.1 µM) 96.5%; (second compound 10 µM, first compound 0.316 µM) 89.5%; (second compound 10 µM, first compound 1 µM) 69%.
For `Cc1nc(NC(=O)N2CCCC2C(N)=O)sc1-c1ccnc(C(C)(C)C(F)(F)F)c1` (stereo not drawn), the viability, T/C is 101% [middle of 8 runs] (compound 0.0316 µM); 97.9% [middle of 8 runs] (compound 0.316 µM); 91.2% [middle of 8 runs] (compound 1 µM); 87.2% [middle of 8 runs] (compound 3.16 µM); 73.8% [middle of 8 runs] (compound 10 µM). Moreover, for the setting “compound alone, run of 05/08/2023”, the IC50 was > 10000 nM.

One may read the IC50 as the concentration at which inhibition is half-maximal. By viability, T/C is commonly meant the ratio of treated to control.

Source of the values: PubChem BioAssay AID1963979 (Molecular Pharmacology Branch, DTP, NCI, 2024).
